# Measurements: patent publication US20210338749A1, “METHODS OF TREATMENT OF INFLAMMATORY CONDITIONS AND ASSOCIATED INFECTIONS” (Servatus Ltd., priority 2018, published 2021)
# Tests used:
# [1] = system: DSS-induced ulcerative colitis; conditions: chronic 2% DSS murine model, previous data obtained by CRL; cited from earlier work
# [2] = system: Streptococcus pyogenes (ATCC 19615); test: Agar well diffusion assay; format: cell-based; conditions: S. pyogenes; 100 μL culture per 9 mm well, 24 hours; ciprofloxacin 5 μg
# Method: (§1) The ability of the Lactobacillus species L. diolivorans, L. paracasei, L. parafarraginis, L. rapi and L. zeae deposited pursuant to the Budapest Treaty as described hereinbefore were tested for their ability to inhibit the growth of bacterial pathogens associated with inflammation and various inflammatory conditions. Pathogens tested for this purpose were Campylobacter jejuni (ATCC 33291), Helicobacter pylori (ATCC 700824), Clostridium difficile (ATCC 9689), Salmonella typhimurium (ATCC 29630), Yersinia enterocolitica (ATCC 23715), Citrobacter sp (ATCC 51378), Streptococcus pyogenes (ATCC 19615), Streptococcus mutans (ATCC 25175), Klebsiella oxytoca (ATCC 700324), and Proteus mirabilis (ATCC 25933). C. jejuni and H. pylori were grown under microaerobic conditions at 37° C. in 5% Columbia horse blood agar (CBA). S. typhimurium, Y. enterocolitica, Citrobacter sp., K. oxytoca and P. mirabilis were grown under aerobic conditions at 37° C. in nutrient agar. S. pyogenes and S. mutans were grown under aerobic conditions with 5% CO2 at 37° C. in 5% CBA. C. difficile was grown under anaerobic conditions at 37° C. in 5% CBA.
# (§2) Inhibition of pathogen growth was determined using an agar well diffusion assay. Cultures of the five test Lactobacillus species were grown in MRS broth for 24 hours at 37° C. Each pathogen was sub-cultured onto nutrient agar plates or 5% CBA plates and incubated under the appropriate conditions (as described above) prior to resuspension in DPBS to give a McFarland standard of 0.5 (equivalent to 10^8 CFU/mL). Each 0.5 McFarland standardised culture was spread, using a swab, onto nutrient agar plates or CBA plates and allowed to soak in prior to making 9 mm wells. 100 μL of each test Lactobacillus, was then added to individual wells and the plates were incubated for 24 hours at 37° C. […] Following incubation, zones of inhibition or zones of growth reduction (hazing of growth) were measured (mm) and recorded. Two readings were taken for each zone and three replicates were used.
# [3] = system: Salmonella typhimurium (ATCC 29630); test: Agar well diffusion assay; format: cell-based; conditions: S. typhimurium; 100 μL culture per 9 mm well, 24 hours; ciprofloxacin 5 μg
# Method: as §1, §2
# [4] = system: Streptococcus mutans (ATCC 25175); test: Agar well diffusion assay; format: cell-based; conditions: S. mutans; 100 μL culture per 9 mm well, 24 hours; ciprofloxacin 5 μg
# Method: as §1, §2
# [5] = system: Klebsiella oxytoca (ATCC 700324); test: Agar well diffusion assay; format: cell-based; conditions: K. oxytoca; 100 μL culture per 9 mm well, 24 hours; ciprofloxacin 5 μg
# Method: as §1, §2
# [6] = system: Proteus mirabilis (ATCC 25933); test: Agar well diffusion assay; format: cell-based; conditions: P. mirabilis; 100 μL culture per 9 mm well, 24 hours; ciprofloxacin 5 μg
# Method: as §1, §2
# [7] = system: Citrobacter sp (ATCC 51378); test: Agar well diffusion assay; format: cell-based; conditions: 100 μL culture per 9 mm well, 24 hours, ciprofloxacin 5 μg
# Method: as §1, §2
# [8] = system: Helicobacter pylori (ATCC 700824); test: Agar well diffusion assay; format: cell-based; conditions: H. pylori; 100 μL culture per 9 mm well, 24 hours; ciprofloxacin 5 μg
# Method: as §1, §2
# [9] = system: Campylobacter jejuni (ATCC 33291); test: Agar well diffusion assay; format: cell-based; conditions: C. jejuni; 100 μL culture per 9 mm well, 24 hours; ciprofloxacin 5 μg
# Method: as §1, §2
# [10] = system: Yersinia enterocolitica (ATCC 23715); test: Agar well diffusion assay; format: cell-based; conditions: Y. enterocolitica; 100 μL culture per 9 mm well, 24 hours; ciprofloxacin 5 μg
# Method: as §1, §2
# [11] = system: Staphylococcus aureus (ATCC 29213); test: Agar well diffusion assay; format: cell-based; conditions: S. aureus (ATCC 29213), includes well diameter of 9 mm
# Method: as §2
# (§3) The ability of L. diolivorans, L. paracasei, L. parafarraginis, L. rapi and L. zeae deposited pursuant to the Budapest Treaty as described hereinbefore were then tested for their ability to inhibit the growth of pathogenic bacteria Staphylococcus aureus (ATCC 29213 and ATCC 25923), Staphylococcus epidermidis (clinical isolate), Pseudomonas aeruginosa (ATCC 27853) and Escherichia coli K12. These pathogens were grown under aerobic conditions at 37° C. in nutrient agar. Inhibition of growth was determined using an agar well diffusion assay as described above. In addition, cell free supernatants derived from culture of the Lactobacillus species were also tested. Briefly, after 24 hours growth, cultures of Lactobacillus were centrifuged at 10,000×g and the supernatant filter sterilised through a 0.2 μm membrane. 100 μl of cell free supernatant was added to the wells containing pathogen.
# [12] = system: Staphylococcus aureus (ATCC 25923); test: Agar well diffusion assay; format: cell-based; conditions: S. aureus (ATCC 25923), includes well diameter of 9 mm
# Method: as §2, §3
# Escherichia coli K12 = test: Agar well diffusion assay; format: cell-based; conditions: E. coli, includes well diameter of 9 mm
# Method: as §2, §3
# [13] = system: Pseudomonas aeruginosa (ATCC 27853); test: Agar well diffusion assay; format: cell-based; conditions: P. aeruginosa, includes well diameter of 9 mm
# Method: as §2, §3
# [14] = cell free supernatants derived from Lactobacilli cultures
compound,measurement,setting,value
C[C@]12C=CC(=O)C=C1CC[C@@H]1[C@@H]2[C@@H](O)C[C@@]2(C)[C@H]1CC[C@]2(O)C(=O)CO [Prednisolone],Therapeutic efficacy (DAI score),[1],failed to demonstrate therapeutic efficacy
Nc1nc2nc[nH]c2c(=S)[nH]1 [6-Thioguanine],Therapeutic efficacy (DAI score),[1],failed to demonstrate therapeutic efficacy
"O=C(O)c1cn(C2CC2)c2cc(N3CCNCC3)c(F)cc2c1=O [Ciprofloxacin, ciprofloxacin]",Zones of inhibition/zones of growth reduction,[2],30.2 mm
same,Zones of inhibition/zones of growth reduction,[3],49 mm
same,Zones of inhibition/zones of growth reduction,[4],28.5 mm
same,Zones of inhibition/zones of growth reduction,[5],41.2 mm
same,Zones of inhibition/zones of growth reduction,[6],44.2 mm
same,Zones of inhibition/zones of growth reduction,[7],47.0 mm
same,Zones of inhibition/zones of growth reduction,[8],31.7 mm
same,Zones of inhibition/zones of growth reduction,[9],30.2 mm
same,Zones of inhibition/zones of growth reduction,[10],44.2 mm
same,Zones of inhibition/zones of growth reduction,[11]; [14],33.7 mm
same,Zones of inhibition/zones of growth reduction,[11]; live cultures of Lactobacilli,33.7 mm
same,Zones of inhibition/zones of growth reduction,[12]; [14],33.7 mm
same,Zones of inhibition/zones of growth reduction,[12]; live cultures of Lactobacilli,33.7 mm
same,Zones of inhibition/zones of growth reduction,Escherichia coli K12; [14],40.0 mm
same,Zones of inhibition/zones of growth reduction,Escherichia coli K12; live cultures of Lactobacilli,40.0 mm
same,Zones of inhibition/zones of growth reduction,[13]; [14],39.2 mm
same,Zones of inhibition/zones of growth reduction,[13]; live cultures of Lactobacilli,39.2 mm
O=C(O)c1cc(/N=N/c2ccc(S(=O)(=O)Nc3ccccn3)cc2)ccc1O [Sulfasalazine],Therapeutic efficacy (DAI score),[1],failed to demonstrate therapeutic efficacy
Nc1ccc(O)c(C(=O)O)c1 [5-Aminosalicylic acid],Therapeutic efficacy (DAI score),[1],failed to demonstrate therapeutic efficacy
